The source of these data is patent US6599932B1, “Alpha, beta-unsaturated sulfones for treating proliferative disorders” (Temple University-Of The Commonwealth System of Higher …, priority 2000, dated 2003).

Common to all, as to format: cell-based
Common to all, as to design: dose or concentration left out as unconfirmed

Test [1] concerns non-small cell lung carcinoma cell line H157. Put plainly: Viability assay, Trypan blue exclusion, non-small cell lung carcinoma cell line H157. The note with it: for cytotoxicity: Homo sapiens, NCI-H157, 96 hours, read-out: percent cell death (% Death), H157. As for the experimental part: (§1) The effect of the sulfones on normal fibroblasts and on tumor cells of prostate, colon, lung and breast origin was examined utilizing the following cell lines: prostate tumor cell line DU-145; colorectal carcinoma cell line DLD-1; non-small cell lung carcinoma cell line H157; and breast tumor cell line BT-20. BT-20 is an estrogen-unresponsive cell line. NIH/3T3 and HFL are normal murine and human fibroblasts, respectively. BT-20, DLD-1 and H157 were grown in Dulbecco's modified Eagle's medium (DMEM) containing 10% fetal bovine serum supplemented with penicillin and streptomycin. DU145 was cultured in RPMI with 10% fetal bovine serum containing penicillin and streptomycin. NIH3T3 and HFL cells were grown in DMEM containing 10% calf serum supplemented with penicillin and streptomycin. All cell cultures were maintained at 37° C. in a humidified atmosphere of 5% CO2.
(§2) Cells were treated with test compound […] concentration and cell viability was determined after 96 hours by the Trypan blue exclusion method. Activity for each compound is reported as a range of cell induced death (% Death) with the lowest activity in the range of 5-10%.

Test [2] has as its system colorectal carcinoma cell line DLD-1. Put plainly: Viability assay, Trypan blue exclusion, colorectal carcinoma cell line DLD-1. As to conditions: for cytotoxicity: Homo sapiens, DLD-1, 96 hours, read-out: percent cell death (% Death), DLD-1. As for the experimental part:
as §1, §2

Test [3] deals with prostate tumor cell line DU-145. Put plainly: Viability assay, Trypan blue exclusion, prostate tumor cell line DU-145. The note with it: for cytotoxicity: Homo sapiens, DU-145, 96 hours, read-out: percent cell death (% Death), DU145. As for the experimental part:
as §1, §2

The test system of test [4] is breast tumor cell line BT-20. Put plainly: Viability assay, Trypan blue exclusion, breast tumor cell line BT-20. As to conditions: for cytotoxicity: Homo sapiens, BT-20, 96 hours, read-out: percent cell death (% Death), BT20. As for the experimental part:
as §1, §2

With `O=S(=O)(/C=C/c1ccccn1)Cc1ccc(F)cc1` [Example 1, (E)-2-Pyridineethenyl-4-fluorobenzylsulfone], the cytotoxicity in test [1], in test [2], in test [3] and in test [4] was 5 to 10% in each case.

With `O=S(=O)(/C=C/c1cccnc1)Cc1ccc(F)cc1` [Example 2, (E)-3-Pyridineethenyl-4-fluorobenzylsulfone], the cytotoxicity in test [1], in test [2], in test [3] and in test [4] was 5 to 10% each time.

With `O=S(=O)(/C=C/c1ccccn1)Cc1ccc(Cl)cc1` [Example 4, (E)-2-Pyridineethenyl-4-chlorobenzylsulfone], the cytotoxicity in test [1], in test [2], in test [3] and in test [4] was 5 to 10% throughout.

On to `O=S(=O)(/C=C/c1cccnc1)Cc1ccc(Cl)cc1` [Example 5, (E)-3-Pyridineethenyl-4-chlorobenzylsulfone], for which the cytotoxicity in test [1], in test [2], in test [3] and in test [4] was 5 to 10% throughout.

Consider `O=S(=O)(/C=C/c1ccncc1)Cc1ccc(Cl)cc1` [Example 6, (E)4-Pyridineethenyl4-chlorobenzylsulfone], for which the cytotoxicity in test [1], in test [2], in test [3] and in test [4] was 5 to 10% throughout.

As for `O=S(=O)(/C=C/c1ccccn1)Cc1ccc(Br)cc1` [Example 7, (E)-2-Pyridineethenyl-4-bromobenzylsulfone], the cytotoxicity in test [1], in test [2], in test [3] and in test [4] was 5 to 10% throughout.

With `O=S(=O)(/C=C/c1cccnc1)Cc1ccc(Br)cc1` [Example 8, (E)-3-Pyridineethenyl-4-bromobenzylsulfone], the cytotoxicity in test [1], in test [2], in test [3] and in test [4] was 10 to 15% in each case.

For the molecule `O=S(=O)(/C=C/c1ccncc1)Cc1ccc(Br)cc1` [Example 9, (E)-4-Pyridineethenyl-4-bromobenzylsulfone], the cytotoxicity in test [1], in test [2], in test [3] and in test [4] was 5 to 10% throughout.

On to `O=S(=O)(/C=C/c1cccs1)Cc1ccc(F)cc1` [Example 10, (E)-2-Thiopheneethenyl-4-fluorobenzylsulfone], for which the cytotoxicity in test [1], in test [2], in test [3] and in test [4] was 5 to 10% each time.

`O=S(=O)(/C=C/c1cccs1)Cc1ccc(Cl)cc1` [Example 11, (E)-2-Thiopheneethenyl4-chlorobenzylsulfone]: the cytotoxicity in test [1], in test [2], in test [3] and in test [4] was 5 to 10% each time.

On to `O=S(=O)(/C=C/c1cccs1)Cc1ccc(Br)cc1` [Example 12, (E)-2-Thiopheneethenyl-4-bromobenzylsulfone], for which the cytotoxicity in test [1], in test [2], in test [3] and in test [4] was 5 to 10% in each case.

With `O=S(=O)(/C=C/c1cc(Br)cs1)Cc1ccc(F)cc1` [Example 13, (E)-4-Bromo-2-thiopheneethenyl-4-fluorobenzylsulfone], the cytotoxicity in test [1], in test [2], in test [3] and in test [4] was 5 to 10% each time.

`O=S(=O)(/C=C/c1cc(Br)cs1)Cc1ccc(Cl)cc1` [Example 14, (E)-4-Bromo-2-thiopheneethenyl-4-chlorobenzylsulfone]: the cytotoxicity in test [1], in test [2], in test [3] and in test [4] was 5 to 10% in each case.

For the molecule `O=S(=O)(/C=C/c1cc(Br)cs1)Cc1ccc(Br)cc1` [Example 15, (E)-4-Bromo-2-thiopheneethenyl-4-bromobenzylsulfone], the cytotoxicity in test [1], in test [2], in test [3] and in test [4] was 5 to 10% each time.

Take `O=S(=O)(/C=C/c1ccc(Br)s1)Cc1ccc(F)cc1` [Example 16, (E)-5-Bromo-2-thiopheneethenyl-4-fluorobenzylsulfone]: the cytotoxicity in test [1], in test [2], in test [3] and in test [4] was 5 to 10% each time.

On to `O=S(=O)(/C=C/c1ccc(Br)s1)Cc1ccc(Cl)cc1` [Example 17, (E)-5-Bromo-2-thiopheneethenyl-4-chlorobenzylsulfone], for which the cytotoxicity in test [1], in test [2], in test [3] and in test [4] was 5 to 10% throughout.

In the case of `O=S(=O)(/C=C/c1ccc(Br)s1)Cc1ccc(Br)cc1` [Example 18, (E)-5-Bromo-2-thiopheneethenyl4-bromobenzylsulfone], the cytotoxicity in test [1], in test [2], in test [3] and in test [4] was 5 to 10% throughout.

In the case of `O=S(=O)(/C=C/c1ccsc1)Cc1ccc(F)cc1` [Example 22, (E)-3-Thiopheneethenyl-4-fluorobenzylsulfone], the cytotoxicity in test [1], in test [2], in test [3] and in test [4] was 5 to 10% in each case.

With `O=S(=O)(/C=C/c1ccsc1)Cc1ccc(Cl)cc1` [Example 23, (E)-3-Thiopheneethenyl-4-chlorobenzylsulfone], the cytotoxicity in test [1], in test [2], in test [3] and in test [4] was 40 to 50% throughout.

Regarding `O=S(=O)(/C=C/c1ccsc1)Cc1ccc(Br)cc1` [Example 24, (E)-3-Thiopheneethenyl-4-bromobenzylsulfone], the cytotoxicity in test [1], in test [2], in test [3] and in test [4] was 40 to 50% in each case.

Turning to `O=S(=O)(/C=C/c1ccsc1)Cc1ccc(I)cc1` [Example 25, (E)-3-Thiopheneethenyl-4-iodobenzylsulfone], the cytotoxicity in test [1], in test [2], in test [3] and in test [4] was 10 to 15% each time.

In the case of `Cc1ccc(CS(=O)(=O)/C=C/c2ccsc2)cc1` [Example 26, (E)-3-Thiopheneethenyl-4-methylbenzylsulfone], the cytotoxicity in test [1], in test [2], in test [3] and in test [4] was 5 to 10% each time.

Turning to `COc1ccc(CS(=O)(=O)/C=C/c2ccsc2)cc1` [Example 27, (E)-3-Thiopheneethenyl-4-methoxybenzylsulfone], the cytotoxicity in test [1], in test [2], in test [3] and in test [4] was 50 to 60% in each case.

`O=S(=O)(/C=C/c1ccsc1)Cc1ccc(OC(F)(F)F)cc1` [Example 28, (E)-3-Thiopheneethenyl-4-trifloromethoxylbenzylsulfone]: the “percent cell death (% Death), H157” value in test [1] (96 hours) was “+ ((+)=5-10%)”. Besides, in test [2] (96 hours), the “percent cell death (% Death), DLD-1” value is “+ ((+)=5-10%)”. Moreover, the “percent cell death (% Death), DU145” value in test [3] (96 hours) is recorded as “+ ((+)=5-10%)”. For the same molecule, the “percent cell death (% Death), BT20” value in test [4] (96 hours) is “+ ((+)=5-10%)”.

Take `O=S(=O)(/C=C/c1ccsc1)Cc1ccc(Cl)cc1Cl` [Example 29, (E)-3-Thiopheneethenyl-2,4-dichlorobenzylsulfone]: the cytotoxicity in test [1], in test [2], in test [3] and in test [4] was 50 to 60% each time.

For `O=S(=O)(/C=C/c1ccsc1)Cc1ccc(Cl)c(Cl)c1` [Example 30, (E)-3-Thiopheneethenyl-3,4-dichlorobenzylsulfone], the cytotoxicity in test [1], in test [2], in test [3] and in test [4] was 5 to 10% throughout.

For `N#Cc1ccc(CS(=O)(=O)/C=C/c2ccsc2)cc1` [Example 31, (E)-3-Thiopheneethenyl-4-cyanobenzylsulfone], the cytotoxicity in test [1], in test [2], in test [3] and in test [4] was 5 to 10% each time.

Consider `O=[N+]([O-])c1ccccc1/C=C/S(=O)(=O)Cc1cccc2ccccc12` [Example 71, (E)-2-Nitrostyryl-1-(naphthylmethyl)sulfone], for which the cytotoxicity in test [3] and in test [4] was 40 to 50% throughout.

As to `O=[N+]([O-])c1cccc(/C=C/S(=O)(=O)Cc2cccc3ccccc23)c1` [Example 72, (E)-3-Nitrostyryl-1-(naphthylmethyl)sulfone], the cytotoxicity in test [3] and in test [4] was 5 to 10% each time.
